According to the NIST ThermoML archive (doi:10.1016/j.jct.2019.04.010):

Assay: xn = mol fraction of the nth substance listed
Conditions: 100 kPa, Liquid; for viscosity: Concentric cylinders viscometry; for mass density: Vibrating tube method

CCCCn1cc[n+](C)c1.O=[N+]([O-])[O-] [1-butyl-3-methylimidazolium nitrate] + CCC(C)O
Conditions	mass density [kg/m3]	viscosity [mPa·s]
293.15 K, x1 = 0.0813	860.4	5.41
293.15 K, x1 = 0.1595	904.7	7.32
293.15 K, x1 = 0.2402	944.9	10.17
293.15 K, x1 = 0.35	991.2	15.43
293.15 K, x1 = 0.4403	1023.7	21.65
293.15 K, x1 = 0.5597	1060.8	33.63
293.15 K, x1 = 0.6503	1085.4	46.65
293.15 K, x1 = 0.7398	1107	65
293.15 K, x1 = 0.8502	1130.6	100.4
293.15 K, x1 = 0.9399	1147.7	156.4
293.15 K, x1 = 1	1158.3	223.54
298.15 K, x1 = 0.0813	856.7	4.47
298.15 K, x1 = 0.1595	901.2	6.12
298.15 K, x1 = 0.2402	941.3	8.37
298.15 K, x1 = 0.35	987.7	12.73
298.15 K, x1 = 0.4403	1020.3	17.92
298.15 K, x1 = 0.5597	1057.5	27.57
298.15 K, x1 = 0.6503	1082.1	38.2
298.15 K, x1 = 0.7398	1103.8	52.3
298.15 K, x1 = 0.8502	1127.6	79.2
298.15 K, x1 = 0.9399	1144.7	119
298.15 K, x1 = 1	1155.2	168.97
303.15 K, x1 = 0.0813	852.6	3.85
303.15 K, x1 = 0.1595	897.3	5.31
303.15 K, x1 = 0.2402	937.4	7.21
303.15 K, x1 = 0.35	984.1	10.87
303.15 K, x1 = 0.4403	1016.8	15.15
303.15 K, x1 = 0.5597	1054.2	22.92
303.15 K, x1 = 0.6503	1078.9	30.82
303.15 K, x1 = 0.7398	1100.8	41.3
303.15 K, x1 = 0.8502	1124.6	62.3
303.15 K, x1 = 0.9399	1141.8	92
303.15 K, x1 = 1	1152.3	125.36
308.15 K, x1 = 0.0813	848.6	3.32
308.15 K, x1 = 0.1595	893.3	4.58
308.15 K, x1 = 0.2402	933.6	6.25
308.15 K, x1 = 0.35	980.4	9.38
308.15 K, x1 = 0.4403	1013.3	12.93
308.15 K, x1 = 0.5597	1050.9	19.27
308.15 K, x1 = 0.6503	1075.7	25.57
308.15 K, x1 = 0.7398	1097.6	33.2
308.15 K, x1 = 0.8502	1121.7	48.8
308.15 K, x1 = 0.9399	1138.9	70.7
308.15 K, x1 = 1	1149.3	96.74
313.15 K, x1 = 0.0813	844.6	2.83
313.15 K, x1 = 0.1595	889.5	3.98
313.15 K, x1 = 0.2402	929.8	5.46
313.15 K, x1 = 0.35	976.9	8.16
313.15 K, x1 = 0.4403	1009.9	11.18
313.15 K, x1 = 0.5597	1047.7	16.39
313.15 K, x1 = 0.6503	1072.7	21.49
313.15 K, x1 = 0.7398	1094.7	28
313.15 K, x1 = 0.8502	1118.8	40
313.15 K, x1 = 0.9399	1136.1	56.6
313.15 K, x1 = 1	1146.5	75.12
318.15 K, x1 = 0.0813	840.2	2.44
318.15 K, x1 = 0.1595	885.3	3.47
318.15 K, x1 = 0.2402	925.8	4.81
318.15 K, x1 = 0.35	973.4	7.15
318.15 K, x1 = 0.4403	1006.6	9.72
318.15 K, x1 = 0.5597	1044.5	14.08
318.15 K, x1 = 0.6503	1069.6	18.26
318.15 K, x1 = 0.7398	1091.8	23.5
318.15 K, x1 = 0.8502	1116.1	33
318.15 K, x1 = 0.9399	1133.5	44.4
318.15 K, x1 = 1	1143.8	56.28
323.15 K, x1 = 0.0813	836	2.16
323.15 K, x1 = 0.1595	881.2	3.06
323.15 K, x1 = 0.2402	921.9	4.26
323.15 K, x1 = 0.35	969.7	6.32
323.15 K, x1 = 0.4403	1003.1	8.53
323.15 K, x1 = 0.5597	1041.3	12.21
323.15 K, x1 = 0.6503	1066.5	15.68
323.15 K, x1 = 0.7398	1088.9	19.7
323.15 K, x1 = 0.8502	1113.4	27.2
323.15 K, x1 = 0.9399	1130.9	36.6
323.15 K, x1 = 1	1141.2	45.17

CCCCn1cc[n+](C)c1.O=[N+]([O-])[O-] [1-butyl-3-methylimidazolium nitrate] + CCCC(C)O
Conditions	mass density [kg/m3]	viscosity [mPa·s]
293.15 K, x1 = 0.0812	854	4.47
293.15 K, x1 = 0.1604	893.6	5.28
293.15 K, x1 = 0.2403	929.8	6.43
293.15 K, x1 = 0.3499	974.3	9.03
293.15 K, x1 = 0.4399	1007.1	12.56
293.15 K, x1 = 0.5604	1046.7	20.29
293.15 K, x1 = 0.6505	1073.3	30.81
293.15 K, x1 = 0.7405	1097.8	47.6
293.15 K, x1 = 0.8501	1124.9	83.3
293.15 K, x1 = 0.9396	1145.3	143.6
293.15 K, x1 = 1	1158.3	223.54
298.15 K, x1 = 0.0812	850.4	3.69
298.15 K, x1 = 0.1604	890.1	4.35
298.15 K, x1 = 0.2403	926.4	5.39
298.15 K, x1 = 0.3499	971.1	7.59
298.15 K, x1 = 0.4399	1004	10.53
298.15 K, x1 = 0.5604	1043.5	17.14
298.15 K, x1 = 0.6505	1070.3	25.47
298.15 K, x1 = 0.7405	1094.8	37.96
298.15 K, x1 = 0.8501	1122	63.4
298.15 K, x1 = 0.9396	1142.3	105.6
298.15 K, x1 = 1	1155.2	168.97
303.15 K, x1 = 0.0812	846.5	3.16
303.15 K, x1 = 0.1604	886.5	3.72
303.15 K, x1 = 0.2403	922.9	4.65
303.15 K, x1 = 0.3499	967.8	6.64
303.15 K, x1 = 0.4399	1000.7	9.14
303.15 K, x1 = 0.5604	1040.5	14.61
303.15 K, x1 = 0.6505	1067.4	21.35
303.15 K, x1 = 0.7405	1092.1	31.14
303.15 K, x1 = 0.8501	1119.3	50.3
303.15 K, x1 = 0.9396	1139.5	81.8
303.15 K, x1 = 1	1152.3	125.36
308.15 K, x1 = 0.0812	842.8	2.74
308.15 K, x1 = 0.1604	882.7	3.25
308.15 K, x1 = 0.2403	919.4	4.08
308.15 K, x1 = 0.3499	964.4	5.73
308.15 K, x1 = 0.4399	997.5	7.89
308.15 K, x1 = 0.5604	1037.4	12.37
308.15 K, x1 = 0.6505	1064.4	17.74
308.15 K, x1 = 0.7405	1089.1	25.35
308.15 K, x1 = 0.8501	1116.3	40
308.15 K, x1 = 0.9396	1136.5	63.4
308.15 K, x1 = 1	1149.3	96.74
313.15 K, x1 = 0.0812	838.8	2.3
313.15 K, x1 = 0.1604	879.2	2.8
313.15 K, x1 = 0.2403	916	3.55
313.15 K, x1 = 0.3499	961.2	5.05
313.15 K, x1 = 0.4399	994.4	6.97
313.15 K, x1 = 0.5604	1034.4	10.51
313.15 K, x1 = 0.6505	1061.4	14.75
313.15 K, x1 = 0.7405	1086.1	20.64
313.15 K, x1 = 0.8501	1113.4	31.9
313.15 K, x1 = 0.9396	1133.8	50
313.15 K, x1 = 1	1146.5	75.12
318.15 K, x1 = 0.0812	834.7	1.95
318.15 K, x1 = 0.1604	875.2	2.4
318.15 K, x1 = 0.2403	912.1	3.05
318.15 K, x1 = 0.3499	957.5	4.37
318.15 K, x1 = 0.4399	990.9	5.91
318.15 K, x1 = 0.5604	1031.1	8.91
318.15 K, x1 = 0.6505	1058.3	12.21
318.15 K, x1 = 0.7405	1083.2	17.09
318.15 K, x1 = 0.8501	1110.7	26.5
318.15 K, x1 = 0.9396	1131	40
318.15 K, x1 = 1	1143.8	56.28
323.15 K, x1 = 0.0812	830.7	1.66
323.15 K, x1 = 0.1604	871.4	1.99
323.15 K, x1 = 0.2403	908.7	2.49
323.15 K, x1 = 0.3499	954.3	3.56
323.15 K, x1 = 0.4399	987.9	4.81
323.15 K, x1 = 0.5604	1028.2	7.13
323.15 K, x1 = 0.6505	1055.5	9.68
323.15 K, x1 = 0.7405	1080.5	13.67
323.15 K, x1 = 0.8501	1108.1	21.47
323.15 K, x1 = 0.9396	1128.4	32.3
323.15 K, x1 = 1	1141.2	45.17
